The record followed here is PMC10223470 (Molecules, 2023).

By Ki is commonly meant the equilibrium dissociation constant of an inhibitor or competing ligand from its target.

This assay has as its target T1, human D2S receptor (Homo sapiens, UniProt P14416).
T1 construct: expressed in transfected cells; host or cells: CHO-K1
In words: Competition radioligand binding at human D2 receptor ([3H]-Spiperone, CHO-K1 membranes). The conditions noted are these: for inhibition at 10 µM: read-out: huD2 % inh. at 10 µM. As for the experimental part: Experiments were carried out in membranes isolated from a CHO-K1 cell line stably overexpressing the cloned human D2S receptor.
Competition radioligand binding assays were performed on membranes isolated from cell lines stably expressing the cloned human receptors, which were either in-house or commercially available. […] Assays (250 μL assay final volume) were carried out in 96-well polypropylene plates in duplicate. In short, the suspension of appropriate membrane protein was incubated in an assay buffer with the addition of the corresponding radioligand, in the presence or absence of a tested compound or reference compound. […] After the incubation, the content of the test plates was transferred to 96 well plates with glass fiber filter GF/B or GF/C, previously pretreated with polyethyleneimine (PEI), and rapidly filtered with the use of vacuum, followed by rapid washing with cold (4 °C) wash buffer. After that, the filter plates were dried at 60 °C for 1 h. Then, 30 μL of liquid scintillation cocktail (UniverSol-ES, MP Biomedicals, Solon, OH, USA) was added to each well of the filter plates, and the radioactivity was measured in a MicroBeta^2 microplate scintillation counter (PerkinElmer, Madrid, Spain).
Competition binding curves were fitted to a one-site competition binding model (Fit Ki) with the use of Prism 7 software (GraphPad, San Diego, CA, USA). logKi (log of the equilibrium dissociation constant (Ki)) values were obtained after constraining the concentration of radioligand employed in the assay and its dissociation constant (KD) as determined in saturation radioligand binding assays.

T1 sequence (P14416 1-414 isoform P14416-2): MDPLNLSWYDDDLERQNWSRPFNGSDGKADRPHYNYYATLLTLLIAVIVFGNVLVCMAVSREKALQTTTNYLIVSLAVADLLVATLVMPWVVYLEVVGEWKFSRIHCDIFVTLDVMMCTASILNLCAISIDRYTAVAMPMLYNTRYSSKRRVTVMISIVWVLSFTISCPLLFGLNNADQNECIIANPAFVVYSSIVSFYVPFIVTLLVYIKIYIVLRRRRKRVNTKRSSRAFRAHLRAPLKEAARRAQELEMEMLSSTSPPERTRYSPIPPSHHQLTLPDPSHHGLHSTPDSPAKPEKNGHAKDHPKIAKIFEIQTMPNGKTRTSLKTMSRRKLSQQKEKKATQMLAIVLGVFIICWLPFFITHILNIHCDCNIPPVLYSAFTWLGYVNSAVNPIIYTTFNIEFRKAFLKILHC

For the compound `O=C(CCN1C(=O)COc2ccccc21)Nc1ccc(C(F)(F)F)cc1` [Compound 1, 3-(3-Oxo-2,3-dihydro-4H-benzo[b][1,4]oxazin-4-yl)-N-(4-(trifluoromethyl)phenyl)propanamide], the inhibition at 10 µM amounted to 35 ± 14%.

Regarding `O=C(CCn1c(=O)sc2ccccc21)Nc1ccc(C(F)(F)F)cc1` [Compound 2, 3-(2-Oxobenzo[d]thiazol-3(2H)-yl)-N-(4-(trifluoromethyl)phenyl)propanamide], the inhibition at 10 µM is 11 ± 5%.

Regarding `O=C(CCn1c(=O)oc2ccccc21)Nc1ccc(C(F)(F)F)cc1` [Compound 3, 3-(2-Oxobenzo[d]oxazol-3(2H)-yl)-N-(4-(trifluoromethyl)phenyl)propanamide], the inhibition at 10 µM was 8 ± 8%.

As to `O=C(CCN1C(=O)CCOc2ccccc21)Nc1ccc(C(F)(F)F)cc1` [Compound 4, 3-(4-Oxo-3,4-dihydrobenzo[b][1,4]oxazepin-5(2H)-yl)-N-(4-(trifluoromethyl)phenyl)propanamide], for the setting “D2 receptor affinity”, the “decrease of activity compared to the initial compound (D2AAK2)” value came to 10 fold. The inhibition constant Ki (mean ± SEM of 2–3 independent experiments in duplicate, read-out: huD2 Ki) worked out at 3.846 ± 0.035 µM.

For the compound `O=C(CCN1CCSCC1=O)Nc1ccc(C(F)(F)F)cc1` [Compound 5, 3-(3-Oxothiomorpholino)-N-(4-(trifluoromethyl)phenyl)propanamide], the inhibition at 10 µM is 14 ± 10%.

Turning to `O=C(CCN1CCCCC1=O)Nc1ccc(C(F)(F)F)cc1` [Compound 6, 3-(2-Oxopiperidin-1-yl)-N-(4-(trifluoromethyl)phenyl)propanamide], the inhibition at 10 µM turned out to be 14 ± 11%.

As for `Cc1ccccc1S(=O)(=O)NCCC(=O)Nc1ccc(C(F)(F)F)cc1` [Compound 7, 3-((2-Methylphenyl)sulfonamido)-N-(4-(trifluoromethyl)phenyl)propanamide], the inhibition at 10 µM was found to be 13 ± 13%.

For `Cc1ccc(S(=O)(=O)NCCC(=O)Nc2ccc(C(F)(F)F)cc2)cc1` [Compound 8, 3-((4-Methylphenyl)sulfonamido)-N-(4-(trifluoromethyl)phenyl)propanamide], the inhibition at 10 µM worked out at 8 ± 7%.

Regarding `O=C(CN1C(=O)CSc2ccccc21)Nc1ccc(C(F)(F)F)cc1` [Compound 9, 2-(3-Oxo-2,3-dihydro-4H-benzo[b][1,4]thiazin-4-yl)-N-(4-(trifluoromethyl)phenyl)acetamide], the inhibition at 10 µM turned out to be 8 ± 8%.

Regarding `O=C(CCN1C(=O)CSc2ccccc21)Nc1ccccc1` [Compound 10, 3-(3-Oxo-2,3-dihydro-4H-benzo[b][1,4]thiazin-4-yl)-N-phenylpropanamide], the inhibition at 10 µM came out at 39 ± 4%.

Turning to `O=C(CCN1C(=O)CSc2ccccc21)Nc1ccccc1C(F)(F)F` [Compound 11, 3-(3-Oxo-2,3-dihydro-4H-benzo[b][1,4]thiazin-4-yl)-N-(2-(trifluoromethyl)phenyl)propanamide], the inhibition at 10 µM is 9 ± 1%.

Consider `Cc1ccccc1NC(=O)CCN1C(=O)CSc2ccccc21` [Compound 12, 3-(3-Oxo-2,3-dihydro-4H-benzo[b][1,4]thiazin-4-yl)-N-(o-tolyl)propanamide], for which the inhibition at 10 µM is 10%.

`Cc1cccc(NC(=O)CCN2C(=O)CSc3ccccc32)c1` [Compound 13, 3-(3-Oxo-2,3-dihydro-4H-benzo[b][1,4]thiazin-4-yl)-N-(m-tolyl)propanamide]: the inhibition at 10 µM worked out at 32 ± 4%.

As for `O=C(CCN1C(=O)CSc2ccccc21)Nc1ccccc1Cl` [Compound 15, N-(2-Chlorophenyl)-3-(3-oxo-2,3-dihydro-4H-benzo[b][1,4]thiazin-4-yl)propanamide], the inhibition at 10 µM came to 9 ± 3%.

For the compound `O=C(CCN1C(=O)CSc2ccccc21)Nc1cccc(Cl)c1` [Compound 16, N-(3-Chlorophenyl)-3-(3-oxo-2,3-dihydro-4H-benzo[b][1,4]thiazin-4-yl)propanamide], the inhibition at 10 µM came to 42 ± 8%.

For the compound `COc1ccccc1NC(=O)CCN1C(=O)CSc2ccccc21` [Compound 18, N-(2-Methoxyphenyl)-3-(3-oxo-2,3-dihydro-4H-benzo[b][1,4]thiazin-4-yl)propanamide], the inhibition at 10 µM came out at 6%.
